This passage reports Ki results from ChEMBL document CHEMBL1128010, “Novel HO-DPAT (hydroxy-2-dipropylaminotetralin) isomers: Stereoselective synthesis and receptor binding studies” (Bioorg Med Chem Lett, 1994).

What all share (type): cell membranes, Striatum, Membrane
The target of assay [1] is T1, D(2) dopamine receptor (Rattus norvegicus, UniProt P61169). Nature of the assay: Compound was evaluated for its affinity to Dopamine receptor D2 labelled with [3H]spiroperidol in rat striatal membranes.
For assay [2], the target named is T1, D(2) dopamine receptor. Nature of the assay: Compound was evaluated for its affinity to Dopamine receptor D2 labelled with [3H]pramipexole in rat striatal membranes.
The target of assay [3] is D(1A) dopamine receptor (Rattus norvegicus, UniProt P18901). Nature of the assay: Compound was evaluated for its affinity to Dopamine receptor D1 labelled with [3H]-SCH- 23390 in rat striatal membranes.
Sequence of D(1A) dopamine receptor (P18901 whole entry): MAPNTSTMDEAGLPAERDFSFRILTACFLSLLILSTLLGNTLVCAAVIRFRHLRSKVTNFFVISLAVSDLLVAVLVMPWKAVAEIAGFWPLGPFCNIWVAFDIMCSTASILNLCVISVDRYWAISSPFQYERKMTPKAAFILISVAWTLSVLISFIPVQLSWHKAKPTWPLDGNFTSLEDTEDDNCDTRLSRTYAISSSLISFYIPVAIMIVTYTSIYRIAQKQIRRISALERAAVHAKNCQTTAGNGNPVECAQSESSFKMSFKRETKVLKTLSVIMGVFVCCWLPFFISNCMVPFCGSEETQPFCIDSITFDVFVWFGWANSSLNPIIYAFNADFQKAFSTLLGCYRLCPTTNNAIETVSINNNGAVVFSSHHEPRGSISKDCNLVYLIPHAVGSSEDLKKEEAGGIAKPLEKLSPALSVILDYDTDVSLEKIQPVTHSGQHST

T1 sequence (P61169 whole entry): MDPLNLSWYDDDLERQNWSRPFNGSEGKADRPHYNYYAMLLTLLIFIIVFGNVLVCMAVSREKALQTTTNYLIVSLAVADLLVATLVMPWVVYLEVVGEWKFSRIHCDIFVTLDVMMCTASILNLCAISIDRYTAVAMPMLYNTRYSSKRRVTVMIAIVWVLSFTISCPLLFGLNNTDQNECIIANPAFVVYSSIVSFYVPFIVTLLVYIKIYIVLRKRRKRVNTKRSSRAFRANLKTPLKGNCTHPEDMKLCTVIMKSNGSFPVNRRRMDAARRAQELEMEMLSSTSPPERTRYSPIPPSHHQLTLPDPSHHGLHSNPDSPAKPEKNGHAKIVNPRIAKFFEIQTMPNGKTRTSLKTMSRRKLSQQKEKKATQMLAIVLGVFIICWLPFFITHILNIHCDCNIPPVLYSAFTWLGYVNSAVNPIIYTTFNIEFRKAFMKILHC

One may read the Ki as the dissociation constant of the complex between target and ligand, obtained from inhibition or displacement. High values mean a looser hold on the target, low ones a stronger hold on the target. Take `CCCN(CCC)C1Cc2ccccc2[C@H](O)C1` (stereo partly specified): the Ki in assay [1] is 13.9 µM; in assay [2], 0.0357 µM; in assay [3] it was greater than 50 µM.
With `CCCN(CCC)C1Cc2ccccc2[C@@H](O)C1` (stereo partly specified), the Ki in assay [1] is 13 µM; in assay [2] it was 0.262 µM; in assay [3] it was greater than 50 µM.
